This data set concerns the target T1, mOat1 (Mus musculus, UniProt Q8VC69).
T1 construct: expressed in transfected cells; host or cells: HEK293
T1 sequence (Q8VC69 1-545): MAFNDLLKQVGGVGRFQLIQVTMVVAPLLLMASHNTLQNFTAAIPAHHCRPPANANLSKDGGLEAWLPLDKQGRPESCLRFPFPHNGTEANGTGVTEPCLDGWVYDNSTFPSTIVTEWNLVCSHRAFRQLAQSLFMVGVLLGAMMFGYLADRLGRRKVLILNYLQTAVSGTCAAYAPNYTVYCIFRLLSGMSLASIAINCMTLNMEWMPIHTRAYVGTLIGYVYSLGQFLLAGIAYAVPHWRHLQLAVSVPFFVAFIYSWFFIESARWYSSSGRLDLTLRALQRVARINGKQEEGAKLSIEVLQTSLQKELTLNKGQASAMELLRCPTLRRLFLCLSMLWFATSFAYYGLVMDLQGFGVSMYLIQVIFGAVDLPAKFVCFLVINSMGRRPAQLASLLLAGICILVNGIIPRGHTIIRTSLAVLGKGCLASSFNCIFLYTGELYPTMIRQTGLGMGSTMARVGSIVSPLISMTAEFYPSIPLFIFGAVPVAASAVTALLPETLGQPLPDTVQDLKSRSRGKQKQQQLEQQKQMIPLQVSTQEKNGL
Briefly: Three-point uptake (substrate assessment) in mOat1-overexpressing HEK293 cells. Type of data set: in vitro ADME. To be noted: 10 μM compound, 100 μM probenecid, 1 and 5 min. The procedure:
This is important to gain a better understanding of the underlying mechanisms of secretion into urine. Therefore, we assessed the amount of compound taken up by the vector and transporter cells at three different concentrations (1, 10, and 100 μM for mOat1 and mOct1; 0.1, 1, and 10 μM for mOat3) and at two different incubation periods (1 and 5 min for mOat1 and mOct1; 5 and 10 min for mOat3).
The incubation buffer contained CHD and CDCHD in a final concentration of 1, 10, and 100 μM. After 1 and 5 min, the incubation was terminated. In addition, the probe inhibitor probenecid (100 μM) was added in one concentration to 10 μM CHD and CDCHD, respectively, and after 1 and 5 min, the incubation was stopped. Inhibition of mOat1-mediated ^3H-PAH (10 μM) uptake by 100 μM probenecid was performed as a control experiment. After 1 min, the incubation was terminated. […]
First, a calibration curve was prepared by spiking different concentrations of CHD and CDCHD into the cell matrix. […] Samples were analyzed using an Agilent 1290 Infinity II HPLC system coupled to an AB Sciex QTrap6500plus mass spectrometer. […]
For statistical testing of differences in uptake ratio or for the inhibitory effect, an ordinary one-way ANOVA test was performed using GraphPad Prism 9.5.1 software. […] Michaelis–Menten kinetics were determined using the Michaelis–Menten algorithm of GraphPad Prism 9.5.1 software. […]

`CC(=O)C1=C(O)[C@@H](N)[C@H]2Cc3c(c(O)c4c(O)c(C)ccc4c3C)C(=O)[C@@]2(O)C1=O` [CHD, chelocardin]: the “uptake ratio (cells without vs with probenecid), mOat1” value is less than 1.
